Values quoted from earlier work in patent US20050249806A1, “Combination of proton pump inhibitor, buffering agent, and nonsteroidal anti-inflammatory drug” (Santarus, Inc., priority 2004, published 2005).

Conditions: pharmacokinetic half-life

half-life | Compound
about 7 hours | CCc1cccc2c3c([nH]c12)C(CC)(CC(=O)O)OCC3 (stereo not shown) [etodolac]
about 6 hours | CC(C(=O)O)c1ccc(-c2ccccc2)c(F)c1 (stereo not shown) [flurbiprofen]
8 to 9 h | O=C(c1ccccc1)c1ccc2n1CCC2C(=O)O (stereo not shown) [ketorolac]
up to 4 hours | Cc1cccc(Nc2ccccc2C(=O)O)c1C [mefenamic acid]
22 to 30 h | COc1ccc2cc(CCC(C)=O)ccc2c1 [nabumetone]
42 to 50 h | O=C(O)CCc1nc(-c2ccccc2)c(-c2ccccc2)o1 [oxaprozin]

Conditions: not given

water solubility | Compound
poor water solubility | COc1ccc2[nH]c([S+]([O-])Cc3ncc(C)c(OC)c3C)nc2c1 (stereo not shown) [omeprazole]
